“And” between values parts separate entries of the source, which are not always exact repeats. Equal values may be shown once. Inconclusive results and toxic doses are left out. How the source made its calls: active means survival T/C of 150% or more; inactive means T/C below 125% in these data.
Test system: P388 leukemia ip, CD2F1 mice, survival T/C
Experiment: NCI In Vivo Anticancer Drug Screen. Data for tumor model P388 Leukemia (intraperitoneal) in CD2F1 (CDF1) mice
Conditions: endpoint: median survival time, higher = longer survival
Summary of the method: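 Mice carrying the transplanted tumor received test compound or vehicle. Survival was recorded in each group, and the value is the treated-group measurement divided by that of the vehicle-treated control group.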

[1] = dose: 6.25 mg/kg/injection, schedule: Q01DX009 (ip), vehicle: saline
[2] = dose: 12.5 mg/kg/injection, schedule: Q01DX009 (ip), vehicle: saline
[3] = dose: 25.0 mg/kg/injection, schedule: Q01DX009 (ip), vehicle: saline
[4] = dose: 50.0 mg/kg/injection, schedule: Q01DX009 (ip), vehicle: saline
[5] = dose: 100.0 mg/kg/injection, schedule: Q01DX009 (ip), vehicle: saline
[6] = dose: 200.0 mg/kg/injection, schedule: Q01DX009 (ip), vehicle: saline
[7] = dose: 400.0 mg/kg/injection, schedule: Q01DX009 (ip), vehicle: saline

Measured: T/C

C=C1CC/C=C(\C)C(=O)C[C@@H]2[C@@H]1CC2(C)C
inactive: dose: 0.37 mg/kg/injection, schedule: Q01DX009 (ip), vehicle: saline + alcohol 106 % of control | dose: 0.75 mg/kg/injection, schedule: Q01DX009 (ip), vehicle: saline + alcohol 108 % of control | dose: 1.5 mg/kg/injection, schedule: Q01DX009 (ip), vehicle: saline + alcohol 106 % of control | dose: 3.0 mg/kg/injection, schedule: Q01DX009 (ip), vehicle: saline + alcohol 94 % of control | dose: 6.0 mg/kg/injection, schedule: Q01DX009 (ip), vehicle: saline + alcohol 98 % of control

CCC[CH2][Sn]([CH2]CCC)([CH2]CCC)[CH2]CCNCCCN(C)C
inactive: [1] 96 % of control | [2] 97 % of control | [3] 96 % of control | [4] 90 % of control | [5] 86 % of control

CC1CCCC(C2CC3CCCCC3C(N)[N-]2)[N-]1.CC1CCCC(C2CC3CCCCC3C(N)[N-]2)[N-]1.O=[N+]([O-])O.[Cu+2] (stereo not drawn)
inactive: dose: 100.0 mg/kg/injection, schedule: Q04DX002 (ip), vehicle: suspension in saline 105 % of control | dose: 200.0 mg/kg/injection, schedule: Q04DX002 (ip), vehicle: suspension in saline 112 % of control

COC(C(N)=O)c1ccccc1 (stereo not drawn)
inactive: [2] 120 % of control | [3] 110 % of control | [4] 103 % of control | [6] 103 % of control | [7] 106 % of control

Cc1ccc(S(=O)(=O)N(C)c2ccc(Cl)cc2C2=NCCc3ccccc32)cc1
inactive: dose: 50.0 mg/kg/injection, schedule: Q01DX009 (ip), vehicle: Klucel (hydroxypropylcellulose) (HPC) 100 % of control | dose: 100.0 mg/kg/injection, schedule: Q01DX009 (ip), vehicle: Klucel (hydroxypropylcellulose) (HPC) 101 % of control | dose: 200.0 mg/kg/injection, schedule: Q01DX009 (ip), vehicle: Klucel (hydroxypropylcellulose) (HPC) 101 % of control

CCCCCCCCCC[CH2][Sn]([CH2]CCCCCCCCCC)([CH2]CCCCCCCCCC)[CH2]CCCCCCCCCC
inactive: [1] 99 % of control | [2] 105 % of control | [3] 99 % of control

CC(=O)OCCOCNC(=S)NCc1ccco1
inactive: dose: 60.0 mg/kg/injection, schedule: Q01DX005 (ip), vehicle: saline with Tween-80 106 % of control | dose: 120.0 mg/kg/injection, schedule: Q01DX005 (ip), vehicle: saline with Tween-80 102 % of control | dose: 240.0 mg/kg/injection, schedule: Q01DX005 (ip), vehicle: saline with Tween-80 98 % of control

O=C(Nc1ccc(C2=NCCCN2)cc1)c1ccc(C(=O)Nc2ccc(C3=NCCCN3)cc2)nc1
inactive: dose: 2.5 mg/kg/injection, schedule: Q01DX009 (ip), vehicle: saline 100 % of control | dose: 5.0 mg/kg/injection, schedule: Q04DX003 (ip), vehicle: saline 95 % of control | dose: 10.0 mg/kg/injection, schedule: Q04DX003 (ip), vehicle: saline 90 % of control

OC(Cn1cccc1)Cn1cccc1
inactive: dose: 60.0 mg/kg/injection, schedule: Q01DX005 (ip), vehicle: saline 100 % of control | dose: 120.0 mg/kg/injection, schedule: Q01DX005 (ip), vehicle: saline 103 % of control | dose: 240.0 mg/kg/injection, schedule: Q01DX005 (ip), vehicle: saline 100 % of control

NC(=S)N/N=C/c1cn(-c2ccccc2[N+](=O)[O-])cn1
inactive: dose: 100.0 mg/kg/injection, schedule: Q04DX003 (ip), vehicle: Klucel (hydroxypropylcellulose) (HPC) 103 % of control | dose: 200.0 mg/kg/injection, schedule: Q04DX003 (ip), vehicle: Klucel (hydroxypropylcellulose) (HPC) 90 % of control

O=S(=O)(O)c1cc(O)c(O)c(S(=O)(=O)O)c1
inactive: [5] 101 % of control and 95 % of control | [6] 100 % of control and 94 % of control | [7] 100 % of control and 103 % of control | dose: 600.0 mg/kg/injection, schedule: Q01DX009 (ip), vehicle: saline 104 % of control and 90 % of control

— PubChem BioAssay AID330 (DTP/NCI, 2004)
